{"source": "patent US10806707B2", "about": "“Cannabis oil compositions and methods for preparation thereof” (priority 2015, dated 2020)", "type_in_all_cases": "cell-based", "key": {"CNR1 (also known as CB1) [1]": {"molecular_target": "T1, CNR1 (also known as CB1) (Homo sapiens, UniProt P21554)", "T1 construct": "β-galactosidase enzyme fragment (implied by the complementation read-out)", "T1 sequence (P21554 whole entry, species assumed, the tested form may be a part)": "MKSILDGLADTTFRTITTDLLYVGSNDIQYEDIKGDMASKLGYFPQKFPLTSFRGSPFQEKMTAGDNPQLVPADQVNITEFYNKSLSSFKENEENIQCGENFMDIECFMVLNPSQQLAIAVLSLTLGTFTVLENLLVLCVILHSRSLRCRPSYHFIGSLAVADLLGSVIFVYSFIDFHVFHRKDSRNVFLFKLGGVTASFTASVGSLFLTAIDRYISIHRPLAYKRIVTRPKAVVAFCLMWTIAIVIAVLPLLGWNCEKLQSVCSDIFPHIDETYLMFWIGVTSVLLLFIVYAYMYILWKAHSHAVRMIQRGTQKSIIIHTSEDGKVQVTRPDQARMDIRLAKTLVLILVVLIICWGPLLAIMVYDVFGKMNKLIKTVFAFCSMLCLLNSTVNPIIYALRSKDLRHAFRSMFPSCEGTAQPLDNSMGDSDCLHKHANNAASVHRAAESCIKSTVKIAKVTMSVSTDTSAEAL", "conditions": "read-out: CNR1 cAMP EC50"}, "CNR1 (also known as CB1) [2]": {"molecular_target": "T1, CNR1 (also known as CB1)", "conditions": "read-out: CNR1 β-Arrestin EC50"}, "CNR2 (also known as CB2) [3]": {"molecular_target": "T2, CNR2 (also known as CB2) (Homo sapiens, UniProt P34972)", "T2 construct": "β-galactosidase enzyme fragment (implied by the complementation read-out)", "T2 sequence (P34972 whole entry, species assumed, the tested form may be a part)": "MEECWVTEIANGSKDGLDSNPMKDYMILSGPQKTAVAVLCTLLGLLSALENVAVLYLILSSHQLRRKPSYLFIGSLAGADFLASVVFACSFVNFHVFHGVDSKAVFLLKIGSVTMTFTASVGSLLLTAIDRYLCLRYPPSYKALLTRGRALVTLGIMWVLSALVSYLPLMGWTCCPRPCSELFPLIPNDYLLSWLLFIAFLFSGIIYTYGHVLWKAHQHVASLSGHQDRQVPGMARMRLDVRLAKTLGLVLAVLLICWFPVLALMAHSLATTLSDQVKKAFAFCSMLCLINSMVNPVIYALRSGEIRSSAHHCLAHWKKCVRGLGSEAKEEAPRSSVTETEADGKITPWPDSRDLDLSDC", "experiment": "cAMP competitive inhibition immunoassay (HitHunter), CNR2 activation", "conditions": "CNR2, cAMP assay"}, "CNR2 (also known as CB2) [4]": {"molecular_target": "T2, CNR2 (also known as CB2)", "experiment": "β-arrestin GPCR assay (PathHunter), CNR2 activation", "conditions": "CNR2, β-arrestin recruitment"}}, "note": "pEC50: −log10 of the molar value. Read-outs that look alike come from different tables or passages of the source.", "data": [{"smiles": "CCCCCc1cc(O)c2c(c1)OC(C)(C)[C@@H]1CCC(CO)=C[C@@H]21", "note": "[Example 11-OH-THC]", "values": [{"measurement": "pEC50", "setting": "CNR1 (also known as CB1) [1]", "value": 7.97}, {"measurement": "pEC50", "setting": "CNR1 (also known as CB1) [2]", "value": "< 4.78"}, {"measurement": "pEC50", "setting": "CNR2 (also known as CB2) [3]", "value": 6.24}, {"measurement": "pEC50", "setting": "CNR2 (also known as CB2) [4]", "value": "< 4.78"}]}]}
